Laboratory results published in patent EP1077981B1, “NOVEL CEPHALOSPORIN COMPOUNDS, PROCESSES FOR PREPARATION THEREOF AND ANTIMICROBIAL COMPOSITIONS CONTAINING THE SAME” (LG CHEMICAL LIMITED, priority 1998, dated 1999).
In brackets after ≈: the same amount, converted by molar mass. Like-named read-outs stand apart in the source and are kept apart here.

Experiments:
Experiment in all cases: MIC against standard strains (agar dilution)
Format in all cases: cell-based
Escherichia coli 851E = system: Escherichia coli 851E
Method: (§1) Test example 1: Measurement of Minimum Inhibitory Concentration (MIC)
(§2) Specifically, test compounds were diluted by 2-fold dilution method and dispersed in Mueller-Hinton agar medium and then, 2µℓ of test strains were inoculated at a concentration of 10^7 cfu(colony forming unit)/mℓ on the medium and incubated for 20 hours at 37°C.

P. vulgaris = settings: Proteus vulgaris, Mueller-Hinton agar, 10^7 cfu/mℓ, 20 hours at 37°C
Method: as §1, §2

[1] = system: Moraxella catarrhalis 25240
Method: as §1, §2

E. coli = settings: Escherichia coli, Mueller-Hinton agar, 10^7 cfu/mℓ, 20 hours at 37°C
Method: as §1, §2

[2] = system: Salmonella typhimurium 14028; settings: Salmonella enterica
Method: as §1, §2

S. pneumoniae = settings: Streptococcus pneumoniae, Mueller-Hinton agar, 10^7 cfu/mℓ, 20 hours at 37°C
Method: as §1, §2

[3] = system: Escherichia coli TEM9 2639E; settings: TEM92639E
Method: as §1, §2

[4] = system: Enterobacter cloacae IND+VE 1194E
Method: as §1, §2

[5] = system: Staphylococcus aureus giorgio
Method: as §1, §2

[6] = system: Klebsiella aerogenes SHV-1 1976E
Method: as §1, §2

[7] = system: Enterococcus faecalis 29212
Method: as §1, §2

Staphylococcus aureus 77 = system: Staphylococcus aureus 77
Method: as §1, §2

[8] = system: Citrobacter freundii 8090
Method: as §1, §2

[9] = system: Moraxella catarrhalis C2431
Method: as §1, §2

H. influenzae = settings: Haemophilus influenzae; H. influenzae; Mueller-Hinton agar, 10^7 cfu/mℓ, 20 hours at 37°C; read-out: MIC
Method: as §1, §2

[10] = system: Staphylococcus epidermidi 887E
Method: as §1, §2

S. aureus = settings: Staphylococcus aureus, Mueller-Hinton agar, 10^7 cfu/mℓ, 20 hours at 37°C
Method: as §1, §2

[11] = system: Pseudomonas aeruginosa 6065Y
Method: as §1, §2

[12] = system: Klebsiella aerogenes K1+ 1082E
Method: as §1, §2

[13] = system: Escherichia coli TEM1 1193E; settings: TEM11193E, 20 h
Method: as §1, §2

Escherichia coli 3190Y = system: Escherichia coli 3190Y
Method: as §1, §2

[14] = system: Staphylococcus aureus 241
Method: as §1, §2

[15] = system: Pseudomonas aeruginosa 1912E
Method: as §1, §2

[16] = system: Klebsiella pneumoniae 2011E
Method: as §1, §2

Enterobacter cloacae P99 = system: Enterobacter cloacae P99
Method: as §1, §2

[17] = system: Serratia marcescens 1826E
Method: as §1, §2

[18] = system: Acinetobacter calcoaceticu 15473
Method: as §1, §2

[19] = system: Escherichia coli TEM3 3455E; settings: TEM33455E, 20 h
Method: as §1, §2

Proteus vulgaris 6059 = system: Proteus vulgaris 6059
Method: as §1, §2

[20] = system: Staphylococcus aureus 6538p
Method: as §1, §2

[21] = system: Citrobacter diversus 2046E; settings: Citrobacter koseri
Method: as §1, §2

Escherichia coli 10536 = system: Escherichia coli 10536
Method: as §1, §2

[22] = system: Morganella morganii 1375E
Method: as §1, §2

SMILES: CC(C)(O/N=C(\C(=O)N[C@@H]1C(=O)N2C(C(=O)[O-])=C(C[n+]3ccccc3)CS[C@H]12)c1csc(N)n1)C(=O)O [Ceftazidime, reference compound]
- MIC (Escherichia coli 851E; Escherichia coli 851E, Mueller-Hinton agar, 20 hours at 37°C, read-out: MIC): 0.063 µg/mL (≈ 0.115 µM)
- MIC (P. vulgaris): 0.031 µg/mL (≈ 0.0567 µM)
- MIC ([1]; Moraxella catarrhalis 25240, Mueller-Hinton agar, 20 hours at 37°C, read-out: MIC): 0.016 µg/mL (≈ 0.0293 µM)
- MIC (E. coli): 0.031 µg/mL (≈ 0.0567 µM)
- MIC ([2]; Salmonella typhimurium 14028, Mueller-Hinton agar, 20 hours at 37°C, read-out: MIC): 0.25 µg/mL (≈ 0.457 µM)
- MIC (S. pneumoniae): 8 µg/mL (≈ 14.6 µM)
- MIC ([3]; Escherichia coli TEM9 2639E, Mueller-Hinton agar, 20 hours at 37°C, read-out: MIC): > 128 µg/mL
- MIC ([4]; Enterobacter cloacae IND+VE 1194E, Mueller-Hinton agar, 20 hours at 37°C, read-out: MIC): 0.5 µg/mL (≈ 0.915 µM)
- MIC ([5]; Staphylococcus aureus giorgio, Mueller-Hinton agar, 20 hours at 37°C, read-out: MIC): 4 µg/mL (≈ 7.32 µM)
- MIC ([6]; SHV11976E, Klebsiella aerogenes SHV-1 1976E, Mueller-Hinton agar, 20 hours at 37°C, read-out: MIC): 0.25 µg/mL (≈ 0.457 µM)
- MIC ([7]; Enterococcus faecalis 29212, Mueller-Hinton agar, 20 hours at 37°C, read-out: MIC): > 128 µg/mL
- MIC (Staphylococcus aureus 77; Staphylococcus aureus 77, Mueller-Hinton agar, 20 hours at 37°C, read-out: MIC): 32 µg/mL (≈ 58.5 µM)
- MIC ([8]; Citrobacter freundii 8090, Mueller-Hinton agar, 20 hours at 37°C, read-out: MIC): 0.13 µg/mL (≈ 0.238 µM)
- MIC ([9]; Moraxella catarrhalis C2431, Mueller-Hinton agar, 20 hours at 37°C, read-out: MIC): 0.031 µg/mL (≈ 0.0567 µM)
- MIC (H. influenzae): 0.063 µg/mL (≈ 0.115 µM)
- MIC ([10]; Staphylococcus epidermidi 887E, Mueller-Hinton agar, 20 hours at 37°C, read-out: MIC): > 128 µg/mL
- MIC (S. aureus): 4 µg/mL (≈ 7.32 µM)
- MIC ([11]; Pseudomonas aeruginosa 6065Y, Mueller-Hinton agar, 20 hours at 37°C, read-out: MIC): 32 µg/mL (≈ 58.5 µM)
- MIC ([12]; Klebsiella aerogenes K1+ 1082E, Mueller-Hinton agar, 20 hours at 37°C, read-out: MIC): 0.25 µg/mL (≈ 0.457 µM)
- MIC [13]: 0.13 µg/mL (≈ 0.238 µM)
- MIC (Escherichia coli 3190Y; Escherichia coli 3190Y, Mueller-Hinton agar, 20 hours at 37°C, read-out: MIC): 0.031 µg/mL (≈ 0.0567 µM)
- MIC ([14]; Staphylococcus aureus 241, Mueller-Hinton agar, 20 hours at 37°C, read-out: MIC): > 128 µg/mL
- MIC ([15]; Pseudomonas aeruginosa 1912E, Mueller-Hinton agar, 20 hours at 37°C, read-out: MIC): 1 µg/mL (≈ 1.83 µM)
- MIC ([16]; Klebsiella pneumoniae 2011E, Mueller-Hinton agar, 20 hours at 37°C, read-out: MIC): 0.5 µg/mL (≈ 0.915 µM)
- MIC (Enterobacter cloacae P99; Enterobacter cloacae P99, Mueller-Hinton agar, 20 hours at 37°C, read-out: MIC): 32 µg/mL (≈ 58.5 µM)
- MIC ([17]; Serratia marcescens 1826E, Mueller-Hinton agar, 20 hours at 37°C, read-out: MIC): 0.25 µg/mL (≈ 0.457 µM)
- MIC ([18]; Acinetobacter calcoaceticu 15473, Mueller-Hinton agar, 20 hours at 37°C, read-out: MIC): 2 µg/mL (≈ 3.66 µM)
- MIC [19]: 8 µg/mL (≈ 14.6 µM)
- MIC (Proteus vulgaris 6059; Proteus vulgaris 6059, Mueller-Hinton agar, 20 hours at 37°C, read-out: MIC): 0.031 µg/mL (≈ 0.0567 µM)
- MIC ([20]; Staphylococcus aureus 6538p, Mueller-Hinton agar, 20 hours at 37°C, read-out: MIC): 16 µg/mL (≈ 29.3 µM)
- MIC ([21]; Citrobacter diversus 2046E, Mueller-Hinton agar, 20 hours at 37°C, read-out: MIC): 0.25 µg/mL (≈ 0.457 µM)
- MIC (Escherichia coli 10536; Escherichia coli 10536, Mueller-Hinton agar, 20 hours at 37°C, read-out: MIC): 0.063 µg/mL (≈ 0.115 µM)
- MIC ([22]; Morganella morganii 1375E, Mueller-Hinton agar, 20 hours at 37°C, read-out: MIC): 0.063 µg/mL (≈ 0.115 µM)

SMILES: C#CCO/N=C(\C(=O)NC1C(=O)N2C(C(=O)O)=C(Sc3cc(N)nc(N)n3)CSC12)c1csc(N)n1 (stereo not shown) [compound 28, 7-[(Z)-2-(2-amino-thiazol-4-yl)-2-propyn-2-yioxyimino-acetylamino]-3-(2,6-diamino-pyrimidin-4-ylsulfanyl)-8-oxo-5-thia1-aza-bicyclo[4,2,0]oct-2-ene-2-carboxylic acid]
- MIC (Escherichia coli 851E; Escherichia coli, 851E, 20 h): 0.25 µg/mL (≈ 0.457 µM)
- MIC ([1]; Moraxella catarrhalis, 25240, 20 h): 0.016 µg/mL (≈ 0.0292 µM)
- MIC ([2]; TYPHIMURIUM, 20 h): 1 µg/mL (≈ 1.83 µM)
- MIC ([3]; Escherichia coli, 20 h): 64 µg/mL (≈ 117 µM)
- MIC ([4]; Enterobacter cloacae, 20 h): > 64 µg/mL
- MIC ([5]; Staphylococcus aureus, 20 h): 0.5 µg/mL (≈ 0.913 µM)
- MIC ([6]; Klebsiella aerogenes, 20 h): 0.5 µg/mL (≈ 0.913 µM)
- MIC ([7]; Enterococcus faecalis, 29212, 20 h): 32 µg/mL (≈ 58.4 µM)
- MIC (Staphylococcus aureus 77; Staphylococcus aureus, 77, 20 h): 4 µg/mL (≈ 7.3 µM)
- MIC ([8]; Citrobacter freundii, 8090, 20 h): 2 µg/mL (≈ 3.65 µM)
- MIC ([9]; Moraxella catarrhalis, C2431, 20 h): 0.016 µg/mL (≈ 0.0292 µM)
- MIC ([10]; Staphylococcus, 887E, 20 h): 8 µg/mL (≈ 14.6 µM)
- MIC ([11]; Pseudomonas aeruginosa, 6065Y, 20 h): 64 µg/mL (≈ 117 µM)
- MIC ([12]; Klebsiella aerogenes, 20 h): > 64 µg/mL
- MIC [13]: 0.5 µg/mL (≈ 0.913 µM)
- MIC (Escherichia coli 3190Y; Escherichia coli, 3190Y, 20 h): 0.13 µg/mL (≈ 0.237 µM)
- MIC ([14]; Staphylococcus aureus, 241, 20 h): 8 µg/mL (≈ 14.6 µM)
- MIC ([15]; Pseudomonas aeruginosa, 1912E, 20 h): 32 µg/mL (≈ 58.4 µM)
- MIC ([16]; Klebsiella pneumoniae, 2011E, 20 h): 2 µg/mL (≈ 3.65 µM)
- MIC (Enterobacter cloacae P99; Enterobacter cloacae, P99, 20 h): > 64 µg/mL
- MIC ([17]; Serratia marcescens, 1826E, 20 h): 8 µg/mL (≈ 14.6 µM)
- MIC ([18]; Acinetobacter, 15473, 20 h): 32 µg/mL (≈ 58.4 µM)
- MIC [19]: 16 µg/mL (≈ 29.2 µM)
- MIC (Proteus vulgaris 6059; Proteus vulgaris, 6059, 20 h): 0.031 µg/mL (≈ 0.0566 µM)
- MIC ([20]; Staphylococcus aureus, 6538P, 20 h): 1 µg/mL (≈ 1.83 µM)
- MIC ([21]; 2046E, 20 h): > 64 µg/mL
- MIC (Escherichia coli 10536; Escherichia coli, 10536, 20 h): 0.25 µg/mL (≈ 0.457 µM)
- MIC ([22]; Morganella morganii, 1375E, 20 h): 0.25 µg/mL (≈ 0.457 µM)
